This is an account of results in patent publication US7169932B2 (priority 2001, dated 2007).

Each structure is given as a SMILES string. pEC50, pKi: −log10 of the molar value. Where two headings read alike, the source gives them in different places.

One assay deals with T1, HIV-1 protease (Q7S) (Human immunodeficiency virus type 1 group M subtype B, UniProt P04585, Q495S).
T1 construct: made in house
Description: HIV-1 Protease RET Assay. To be noted: for Ki: Ave. Ki (nM), RET assay, Q7S enzyme, pH 4.8, 37 C; for pKi: Ki, table of drawn compounds, unit inferred. It is filed as biochemical. The procedure, abridged: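 Ki values came from a RET assay on refolded Q7S protease (2 nM active dimer) cleaving RE(EDANS)SQNYPIVQK(DABCYL)R at 5 μM, read at ex 340/em 490 nm. Reactions ran 12 min at 37 C in 0.1M sodium acetate pH 4.8, 1M NaCl, 5 mM DTT, 10% DMSO; curves were fit with the Morrison tight-binding equation.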

Another assay relates to HIV-1. Description: Cytopathic Effect (CPE) Inhibition Assay (XTT dye reduction). The format is cell-based. To be noted: for EC50: Human immunodeficiency virus 1, 144 h, read-out: Ave CPE EC50 (mM); for pEC50: Human immunodeficiency virus 1. On the procedure: T-cell lines, CEM-SS, and MT-2, and viruses HIV-1 RF and HIV-1 NL4–3 (pNL4–3) were obtained from the National Institutes of Health (AIDS Research and Reference Reagent Program, Bethesda, Md.).
The ability of compounds to protect cells against HIV infection was measured by the […] dye reduction method, essentially as described (See Pauwels, R. Balzarini, J. Baba, M. Snoeck, R. Schols, D. Herdewijn, P. Desmyter, J. and De Clercq, E. 1988, “Rapid and automated tetrazolium-based colorimetric assay for the detection of anti-HIV compounds,”. J Virol Methods., 20: 309–321 and Weislow, O. S. Kiser, R. Fine, D. L. Bader, J. Shoemaker, R. H. and Boyd, M. R. 1989. “New soluble-formazan assay for HIV-1 cytopathic effects: application to high-flux screening of synthetic and natural products for AIDS-antiviral activity”. J. Natl. Cancer Inst. 81:577–586). Subject cells were infected with test virus at an moi of 0.025 to 0.819 or mock infected with medium only and added at 2×10^4 cells per well into 96 well plates containing half-log dilutions of test compounds. Six days later, 50 μl of XTT (1 mg/ml XTT tetrazolium, […] phenazine methosulfate) was added to the wells and the plate was reincubated for four hours. Viability, as determined by the amount of XTT formazan produced, was quantified spectrophotometrically by absorbance at 450 nm. Data from CPE assays were expressed as the percent of formazan produced in compound-treated cells compared to formazan produced in wells of uninfected, compound-free cells. The fifty percent effective concentration (EC50) was calculated as the concentration of compound that effected an increase in the percentage of formazan production in infected, compound-treated cells to 50% of that produced by uninfected, compound-free cells. The 50% cytotoxicity concentration (CC50) was calculated as the concentration of compound that decreased the percentage of formazan produced in uninfected, compound-treated cells to 50% of that produced in uninfected, compound-free cells. The therapeutic index was calculated by dividing the cytotoxicity (CC50) by the antiviral activity (EC50).

One may read the Ki as a dissociation constant, usually derived from enzyme kinetics or from competition with a known ligand. As a reminder, the EC50 is the concentration giving half of the maximal effect. As usually defined, the pKi is −log10 of the Ki, conventionally taken in molar units. High values mean a low Ki, low ones a high Ki. A word on the pEC50: it is the negative decadic logarithm of the EC50, by convention in mol/L.

At HIV-1 protease (Q7S), `Cc1c(O)cccc1C(=O)N[C@@H](Cc1ccccc1)[C@H](O)C(=O)N1CSC(C)(C)[C@H]1C(=O)NCCC(F)(F)F` [Example A45, (R)-3-((2S,3S)-2-Hydroxy-3-{[1-(3-hydroxy-2-methyl-phenyl)-methanoyl]-amino}-4-phenyl-butanoyl)-5,5-dimethyl-thiazolidine-4-carboxylic acid (3,3,3-trifluoro-propyl)-amide] came in with a Ki of 0.51 nM. In addition, the EC50 with HIV-1 was 165 nM.
At HIV-1 protease (Q7S), `Cc1ccccc1CNC(=O)[C@H]1N(C(=O)[C@@H](O)[C@H](Cc2ccccc2)NC(=O)c2sc(N)nc2C)CSC1(C)C` [Example B15, 2-Amino-4-methyl-thiazole-5-carboxylic acid {(S)-1-benzyl-3-[5,5-dimethyl-4-(2-methyl-benzylcarbamoyl)-thiazolidin-3-yl]-2-hydroxy-3-oxo-propyl}-amide] yielded an inhibition constant Ki of 2 nM. In the assay on HIV-1, the EC50 turned out to be 1090 nM.
At HIV-1 protease (Q7S), `Cc1c(O)cccc1C(=O)N[C@@H](Cc1ccccc1)[C@H](O)C(=O)N1CSC(C)(C)[C@H]1C(=O)NCc1ccc(C(F)(F)F)cc1F` had a negative-log Ki (pKi) of 7.95. The pEC50 with HIV-1 was 5.85.
Turning to `Cc1c(O)cccc1C(=O)N[C@@H](Cc1ccccc1)[C@H](O)C(=O)N1CSC(C)(C)[C@H]1C(=O)NC(C)(C)C#N` [Example A41, (R)-3-((2S,3S)-2-Hydroxy-3-{[1-(3-hydroxy-2-methyl-phenyl)-methanoyl]-amino}-4-phenyl-butanoyl)-5,5-dimethyl-thiazolidine-4-carboxylic acid (1-cyano-1,1-dimethyl-methyl)-amide], at HIV-1 protease (Q7S), the Ki is 1.6 nM. Moreover, the EC50 in the assay with HIV-1 amounted to 527 nM.
As to `Cc1c(O)cccc1C(=O)N[C@@H](Cc1ccccc1)[C@H](O)C(=O)N1CSC(C)(C)[C@H]1C(=O)NCC(C)(C)C`, the negative-log Ki (pKi) at HIV-1 protease (Q7S) is at least 10.00. In the assay on HIV-1, this compound showed a pEC50 of 7.28.
For `Cc1ccccc1CNC(=O)[C@H]1N(C(=O)[C@@H](O)[C@H](Cc2ccccc2)NC(=O)c2cccn2C)CSC1(C)C` [Example B12, (R)-3-{(2S,3S)-2-Hydroxy-3-[(1-methyl-1H-pyrrole-2-carbonyl)-amino]-4-phenyl-butyryl}-5,5-dimethyl-thiazolidine-4-carboxylic acid 2-methyl-benzylamide], at HIV-1 protease (Q7S), the inhibitory constant (Ki) worked out at 0.45 nM. Also, the EC50 with HIV-1 amounted to 1400 nM.
On HIV-1 protease (Q7S), `Cc1c(O)cccc1C(=O)N[C@@H](Cc1ccccc1)[C@H](O)C(=O)N1CSC(C)(C)[C@H]1C(=O)NCc1cccc(CN(C)C)c1` showed a pKi of 7.98. Also, in the assay with HIV-1, the pEC50 is 5.49.
On to `Cc1ccsc1CNC(=O)[C@H]1N(C(=O)[C@@H](O)[C@H](Cc2ccccc2)NC(=O)c2cccc(O)c2C)CSC1(C)C` [Example A8], for which the Ki at HIV-1 protease (Q7S) turned out to be 0.23 nM. In addition, the EC50 in the assay with HIV-1 was 36 nM.
As for `Cc1ccccc1CNC(=O)[C@H]1N(C(=O)[C@@H](O)[C@H](Cc2ccccc2)NC(=O)c2cnc(C(F)(F)F)[nH]c2=O)CSC1(C)C`, the negative-log Ki (pKi) at HIV-1 protease (Q7S) is 5.77. In the assay with HIV-1, this compound had a pEC50 of at most 5.00.
On the same counts, the results for `Cc1cc(Cl)ccc1CNC(=O)[C@H]1N(C(=O)[C@@H](O)[C@H](Cc2ccccc2)NC(=O)c2cccc(O)c2C)CSC1(C)C` are 9.59 and 6.68.
On the same counts, the results for `Cc1c(O)cccc1C(=O)N[C@@H](Cc1ccccc1)[C@H](O)C(=O)N1CSC(C)(C)[C@H]1C(=O)NCc1ccc(F)c(F)c1F` are 9.96 and 6.48.
Turning to `COc1ccccc1C(=O)N[C@@H](Cc1ccccc1)[C@H](O)C(=O)N1CSC(C)(C)[C@H]1C(=O)NCc1ccccc1C`, on HIV-1 protease (Q7S), the negative-log Ki (pKi) was 8.68. This compound also gave a negative logarithm of the EC50 (pEC50) with HIV-1 of 5.83.
The matching figures for `Cc1cc(C(=O)N[C@@H](Cc2ccccc2)[C@H](O)C(=O)N2CSC(C)(C)[C@H]2C(=O)NCc2ccccc2C)n[nH]1`: 7.71 and 5.52.
As to `Cc1c(O)cccc1C(=O)N[C@@H](Cc1ccccc1)[C@H](O)C(=O)N1CSC(C)(C)[C@H]1C(=O)NCc1cc(F)c(F)cc1F`, the negative logarithm of the Ki (pKi) at HIV-1 protease (Q7S) was 9.77. In the assay on HIV-1, this compound had a negative logarithm of the EC50 (pEC50) of 6.54.
Regarding `Cc1ccc(F)cc1CNC(=O)[C@H]1N(C(=O)[C@@H](O)[C@H](Cc2ccccc2)NC(=O)c2cccc(O)c2C)COC1(C)C` [Example C9, (S)-3-((2S,3S)-2-Hydroxy-3-{[1-(3-hydroxy-2-methyl-phenyl)-methanoyl]-amino}-4-phenyl-butanoyl)-5,5-dimethyl-oxazolidine-4-carboxylic acid 5-fluoro-2-methyl-benzylamide], the Ki at HIV-1 protease (Q7S) was determined as 0.34 nM. Besides, in the assay with HIV-1, the concentration giving a half-maximal response (EC50) is 233 nM.
On the same counts, the results for `Cn1cccc1C(=O)N[C@@H](Cc1ccccc1)[C@H](O)C(=O)N1CSC(C)(C)[C@H]1C(=O)NCc1ccccc1C(F)(F)F` [Example B26, 3-{2-Hydroxy-3-[(1-methyl-1H-pyrrole-2-carbonyl)-amino]-4-phenyl-butyryl}-5,5-dimethyl-thiazolidine-4-carboxylic acid 2-trifluoromethyl-benzylamide] are 2.9 nM and 1710 nM.
With `Cc1ccccc1CNC(=O)[C@H]1N(C(=O)[C@@H](O)[C@H](Cc2ccccc2)NC(=O)c2csc(N)n2)CSC1(C)C`, at HIV-1 protease (Q7S), the pKi is 8.64. In the assay on HIV-1, this compound showed a negative-log EC50 (pEC50) of 5.86.
`Cc1c(O)cccc1C(=O)N[C@@H](Cc1ccccc1)[C@H](O)C(=O)N1CSC(C)(C)[C@H]1C(=O)NCc1cc(F)ccc1C(F)(F)F` [Example A5, 3-(2-Hydroxy-3-{[1-(3-hydroxy-2-methyl-phenyl)-methyanoyl]amino}-4-phenyl-butanoyl)-5,5-dimethyl-thiazolidine-4-carboxlic acid fluoro trifluoromethyl-benzylamide] returned a Ki on HIV-1 protease (Q7S) of 2 nM. For the same compound, in the assay on HIV-1, the 50% effective concentration (EC50) was 433 nM.
The matching figures for `Cc1ccccc1CNC(=O)[C@H]1N(C(=O)[C@@H](O)[C@H](Cc2ccccc2)NC(=O)c2cccc(O)n2)CSC1(C)C` [Example B48]: 12 nM and over 3200 nM.
On the same counts, the results for `Cc1ccccc1CN(CCO)C(=O)[C@H]1N(C(=O)[C@@H](O)[C@H](Cc2ccccc2)NC(=O)c2cccc(O)c2C)CSC1(C)C` [Example A50, (R)-3-((2S,3S)-2-Hydroxy-3-{[1-(3-hydroxy-2-methyl-phenyl)-methanoyl]-amino}-4-phenyl-butanoyl)-5,5-dimethyl-thiazolidine-4-carboxylic acid (2-hydroxy-ethyl)-(2-methyl-benzyl)-amide] are 0.26 nM and 224 nM.
`C=CCNC(=O)[C@H]1N(C(=O)[C@@H](O)[C@H](Cc2ccccc2)NC(=O)c2cccc(F)c2C)CSC1(C)C` [Example B33, (R)-3-((2S,3S)-3-{[1-(3-Fluoro-2-methyl-phenyl)-methanoyl]-amino}-2-hydroxy-4-phenyl-butanoyl)-5,5-dimethyl-thiazolidine-4-carboxylic acid allylamide] showed an inhibitory constant (Ki) on HIV-1 protease (Q7S) of 1.2 nM. Moreover, the 50% effective concentration (EC50) in the assay with HIV-1 turned out to be 1290 nM.
The matching figures for `C=CCNC(=O)[C@H]1N(C(=O)[C@@H](O)[C@H](Cc2ccccc2)NC(=O)c2ccc(C)c(O)c2C)CSC1(C)C` [Example B20, (R)-3-((2S,3S)-2-Hydroxy-3-{[1-(3-hydroxy-2,4-dimethyl-phenyl)-methanoyl]-amino}-4-phenyl-butanoyl)-5,5-dimethyl-thiazolidine-4-carboxylic acid allylamide]: 2.1 nM and 427 nM.
Compound `Cc1ccccc1CNC(=O)[C@@H]1C[C@H](F)CN1C(=O)[C@@H](O)[C@H](Cc1ccccc1)NC(=O)c1cccc(O)c1C` [Example C3, (2S,4S)-4-Fluoro-1-[(2S,3S)-2-hydroxy-3-(3-hydroxy-2-methyl-benzoylamino)-4-phenyl-butyryl]-pyrrolidine-2-carboxylic acid 2-methyl-benzylamide] gave a Ki at HIV-1 protease (Q7S) of 1.3 nM. Moreover, the half-maximal effective concentration (EC50) with HIV-1 stood at 500 nM.
On the same counts, the results for `C#CCN(C)C(=O)[C@H]1N(C(=O)[C@@H](O)[C@H](Cc2ccccc2)NC(=O)c2cccc(O)c2C)CSC1(C)C` [Example A27, (R)-3-((2S,3S)-2-Hydroxy-3-{[1-(3-hydroxy-2-methyl-phenyl)-methanoyl]-amino}-4-phenyl-butanoyl)-5,5-dimethyl-thiazolidine-4-carboxylic acid methyl-prop-2-ynyl-amide] are 0.62 nM and 72 nM.
